Each structure is given as a SMILES string.

In general, Ki refers to a dissociation constant, usually derived from enzyme kinetics or from competition with a known ligand. One may read the inhibition as the change of the read-out against control, counted positive when it falls.

For one experiment, the target named is T1, GluK3 (Rattus norvegicus, UniProt P42264).
T1 construct: made in house; host or cells: Sf9 insect cells (membranes)
The experiment is described as follows: Radioligand binding at recombinant homomeric GluK3 in Sf9 membranes. The settings on record: recombinant rat homomeric receptor, [3H]-kainic acid, mean ± SEM. The method, then:
(§1) Ligand binding affinities at recombinant rat homomeric GluA2, GluK1−3, and GluK5 were determined as previously detailed. […] The filters were dried at 70 °C for 1 h, and 50 μL/well Microscint 20 (PerkinElmer, Waltham, MA, USA) was added. Radioactivity was detected with a TopCounter (PerkinElmer, Waltham, MA, USA). GluA2 and GluK5 assays were filtered on GF/C type filters using Millipore 12-well filtration manifolds (Merck Life Science, Søborg, Denmark) and washed twice with ice-cold assay buffer. Filters were placed in pony vials (PerkinElmer, Waltham, MA, USA), 3 mL of Ultima Gold scintillation fluid (PerkinElmer, Waltham, MA, USA) was added, and DPM (disintegrations per minute) were determined using a TriCarb 2900 scintillation counter (PerkinElmer, Waltham, MA, USA).
(§2) All competition curves (n ≥ 3 per ligand) were determined in triplicate. Data were analyzed using GraphPad Prism 6 (GraphPad Software, San Diego, CA, USA) to determine ligand affinity (Ki) and Hill coefficient (nH) using the one-site Ki and four-parameter logistics equations, respectively.

The target of the next experiment is T2, GluA2 (Rattus norvegicus, UniProt P19491).
T2 construct: made in house; host or cells: Sf9 insect cells (membranes)
The experiment is described as follows: Radioligand binding at recombinant homomeric GluA2 in Sf9 membranes. The settings on record: recombinant rat homomeric receptor, [3H]-(RS)-AMPA, mean ± SEM. The method, then: as §1, §2

The target in another experiment is T3, GluK5 (Rattus norvegicus, UniProt Q63273).
T3 construct: made in house; host or cells: Sf9 insect cells (membranes)
T3 sequence (Q63273 15-979): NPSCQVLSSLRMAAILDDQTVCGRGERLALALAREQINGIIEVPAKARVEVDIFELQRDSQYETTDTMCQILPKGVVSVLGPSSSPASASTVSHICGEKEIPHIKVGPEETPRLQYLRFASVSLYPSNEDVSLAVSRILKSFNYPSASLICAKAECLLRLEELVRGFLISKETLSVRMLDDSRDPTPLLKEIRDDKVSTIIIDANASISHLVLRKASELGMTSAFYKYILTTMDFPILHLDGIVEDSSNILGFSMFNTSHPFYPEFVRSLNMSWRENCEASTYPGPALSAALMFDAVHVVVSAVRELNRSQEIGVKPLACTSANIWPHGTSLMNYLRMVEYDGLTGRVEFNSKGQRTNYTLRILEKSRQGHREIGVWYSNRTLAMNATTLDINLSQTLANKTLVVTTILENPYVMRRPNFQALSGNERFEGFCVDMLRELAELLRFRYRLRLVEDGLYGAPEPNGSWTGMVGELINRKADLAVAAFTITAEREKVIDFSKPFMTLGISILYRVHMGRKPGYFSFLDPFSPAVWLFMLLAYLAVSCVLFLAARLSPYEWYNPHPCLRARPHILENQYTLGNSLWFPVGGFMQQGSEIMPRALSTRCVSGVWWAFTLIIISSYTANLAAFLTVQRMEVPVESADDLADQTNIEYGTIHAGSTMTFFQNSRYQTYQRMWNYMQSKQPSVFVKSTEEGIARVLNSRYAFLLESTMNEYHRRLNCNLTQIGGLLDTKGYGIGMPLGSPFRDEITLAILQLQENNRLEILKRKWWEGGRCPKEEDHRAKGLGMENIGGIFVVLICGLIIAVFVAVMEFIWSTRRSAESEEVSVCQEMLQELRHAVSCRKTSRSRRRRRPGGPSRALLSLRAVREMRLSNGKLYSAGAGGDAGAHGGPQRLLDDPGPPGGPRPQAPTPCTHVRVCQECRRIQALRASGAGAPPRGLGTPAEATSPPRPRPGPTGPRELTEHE
The experiment is described as follows: Radioligand binding at recombinant homomeric GluK5 in Sf9 membranes. The note with it: recombinant rat homomeric receptor, [3H]-kainic acid, mean ± SEM. The protocol:
as §1, §2

The target of a further experiment is T4, GluK1b(Q) (Rattus norvegicus, UniProt P22756).
T4 construct: expressed in transfected cells
The experiment in a line: Intracellular Ca2+ imaging assay, HEK293 cells expressing GluK1b(Q). The note with it: 10 µM compound, Ca2+ fluorescence, read-out: inhibition of agonist-evoked responses at GluK1. It is filed as cell-based. From the text:
For the determination of antagonistic activity of compounds at GluK1, GluK3 and GluA2 receptors, stable HEK293 cell lines expressing rat GluK1b(Q), GluK3a, and GluA2(Q)i were created. A polyclonal stable cell line expressing GluK3a was created as described previously. For the creation of polyclonal stable cell lines expressing GluK1and GluA2 receptors, cDNA encoding blasticidin-S deaminase (blas) enzymes were inserted into the pIRES plasmid vector (Clontech, Mountain View, CA, USA) to create the plasmid vector pRES(blas). […] For functional assays, cells were plated into clear-bottomed, black 96-well fluorescence culture plates (Corning, Vordingborg, Denmark), and when >70% confluent, the cells were loaded with 2 μM Fluo 4-AM calcium sensitive dye (Abcam, Cambridge, UK) and used for the imaging of agonist-evoked changes in intracellular Ca^2+ using a FlexStation I plate reader (Molecular Devices, San Jose, CA, USA). […] Changes in dye fluorescence in response to the addition of an agonist solution were then measured at 538 nm using excitation at 485 nm and emission cut-off at 515 nm. Baseline fluorescence was measured for 16 s before the addition of 50 µL agonist solution to each well of the assay plate, and fluorescence was measured for 120 to 160 s after addition of the agonists. […] Responses were determined in at least triplicate at each compound concentration.

For a further experiment, the target named is T5, GluK2 (Rattus norvegicus, UniProt P42260).
T5 construct: made in house; host or cells: Sf9 insect cells (membranes)
The experiment is described as follows: Radioligand binding at recombinant homomeric GluK2 in Sf9 membranes. The note with it: recombinant rat homomeric receptor, [3H]-kainic acid, mean ± SEM. The protocol: as §1, §2

T1 sequence (P42264 32-919): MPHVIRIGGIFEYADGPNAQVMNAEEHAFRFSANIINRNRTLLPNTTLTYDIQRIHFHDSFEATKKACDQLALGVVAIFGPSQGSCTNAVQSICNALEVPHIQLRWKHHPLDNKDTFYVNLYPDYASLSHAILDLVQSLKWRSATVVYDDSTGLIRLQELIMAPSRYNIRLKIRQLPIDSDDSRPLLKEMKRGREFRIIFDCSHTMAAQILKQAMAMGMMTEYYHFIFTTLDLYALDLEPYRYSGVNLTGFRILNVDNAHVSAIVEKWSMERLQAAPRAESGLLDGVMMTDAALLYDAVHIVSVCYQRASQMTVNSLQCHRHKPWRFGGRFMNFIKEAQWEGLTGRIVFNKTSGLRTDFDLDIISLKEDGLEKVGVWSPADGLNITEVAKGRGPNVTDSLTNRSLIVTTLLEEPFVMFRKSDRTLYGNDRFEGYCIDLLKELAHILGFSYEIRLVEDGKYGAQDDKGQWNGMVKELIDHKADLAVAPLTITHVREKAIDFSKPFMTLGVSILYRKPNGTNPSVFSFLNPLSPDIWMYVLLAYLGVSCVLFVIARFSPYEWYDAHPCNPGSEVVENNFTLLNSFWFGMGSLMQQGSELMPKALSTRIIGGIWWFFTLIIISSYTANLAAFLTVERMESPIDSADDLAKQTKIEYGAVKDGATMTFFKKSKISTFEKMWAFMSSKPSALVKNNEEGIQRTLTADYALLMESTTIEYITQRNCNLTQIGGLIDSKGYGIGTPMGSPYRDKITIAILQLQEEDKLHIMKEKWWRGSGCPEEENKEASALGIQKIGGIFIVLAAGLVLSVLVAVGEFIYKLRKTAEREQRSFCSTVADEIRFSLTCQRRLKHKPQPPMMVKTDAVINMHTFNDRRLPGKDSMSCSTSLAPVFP
T5 sequence (P42260 32-908): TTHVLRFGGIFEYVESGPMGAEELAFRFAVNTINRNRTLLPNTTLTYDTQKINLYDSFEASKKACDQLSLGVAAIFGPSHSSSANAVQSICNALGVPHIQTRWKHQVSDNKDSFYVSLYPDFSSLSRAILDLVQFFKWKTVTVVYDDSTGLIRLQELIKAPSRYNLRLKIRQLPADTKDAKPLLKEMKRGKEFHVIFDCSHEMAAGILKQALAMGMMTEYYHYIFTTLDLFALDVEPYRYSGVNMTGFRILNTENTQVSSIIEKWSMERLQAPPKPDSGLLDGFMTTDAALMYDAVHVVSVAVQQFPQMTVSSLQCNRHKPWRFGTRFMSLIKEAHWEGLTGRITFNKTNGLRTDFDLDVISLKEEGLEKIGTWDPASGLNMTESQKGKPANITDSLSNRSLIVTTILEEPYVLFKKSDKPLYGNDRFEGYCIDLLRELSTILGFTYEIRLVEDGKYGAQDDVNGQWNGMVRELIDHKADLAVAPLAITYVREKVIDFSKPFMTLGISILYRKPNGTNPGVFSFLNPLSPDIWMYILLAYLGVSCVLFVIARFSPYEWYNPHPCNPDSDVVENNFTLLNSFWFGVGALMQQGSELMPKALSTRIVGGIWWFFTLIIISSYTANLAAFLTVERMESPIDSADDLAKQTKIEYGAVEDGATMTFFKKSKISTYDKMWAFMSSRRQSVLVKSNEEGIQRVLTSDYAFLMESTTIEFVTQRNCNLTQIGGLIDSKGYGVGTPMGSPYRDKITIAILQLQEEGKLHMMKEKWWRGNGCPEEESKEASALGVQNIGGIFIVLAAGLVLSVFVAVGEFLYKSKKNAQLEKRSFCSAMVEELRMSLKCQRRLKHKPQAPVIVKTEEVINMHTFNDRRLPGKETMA
T4 sequence (P22756 31-920 isoform P22756-4 limits assumed): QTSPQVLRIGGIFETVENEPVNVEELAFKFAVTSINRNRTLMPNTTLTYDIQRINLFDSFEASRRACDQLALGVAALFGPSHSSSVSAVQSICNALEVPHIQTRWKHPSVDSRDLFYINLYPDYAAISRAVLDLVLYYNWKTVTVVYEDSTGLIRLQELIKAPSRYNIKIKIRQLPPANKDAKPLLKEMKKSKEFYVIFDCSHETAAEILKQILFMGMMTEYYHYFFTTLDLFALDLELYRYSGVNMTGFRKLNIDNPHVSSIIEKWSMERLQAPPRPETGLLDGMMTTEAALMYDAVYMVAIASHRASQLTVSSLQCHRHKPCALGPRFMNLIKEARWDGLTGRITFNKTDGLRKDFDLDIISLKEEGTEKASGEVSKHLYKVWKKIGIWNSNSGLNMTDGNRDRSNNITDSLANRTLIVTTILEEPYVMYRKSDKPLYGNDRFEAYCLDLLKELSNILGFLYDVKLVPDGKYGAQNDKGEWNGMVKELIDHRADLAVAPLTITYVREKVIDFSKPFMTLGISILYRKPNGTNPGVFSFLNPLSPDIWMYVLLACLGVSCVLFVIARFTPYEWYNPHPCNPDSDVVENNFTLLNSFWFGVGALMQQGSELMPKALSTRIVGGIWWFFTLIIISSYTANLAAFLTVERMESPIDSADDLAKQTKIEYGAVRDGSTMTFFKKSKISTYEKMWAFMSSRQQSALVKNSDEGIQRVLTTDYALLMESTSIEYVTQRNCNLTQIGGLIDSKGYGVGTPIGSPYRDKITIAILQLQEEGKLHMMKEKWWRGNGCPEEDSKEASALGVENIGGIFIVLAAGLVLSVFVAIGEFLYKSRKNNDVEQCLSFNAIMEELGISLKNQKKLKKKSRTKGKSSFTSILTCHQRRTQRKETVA
T2 sequence (P19491 22-883): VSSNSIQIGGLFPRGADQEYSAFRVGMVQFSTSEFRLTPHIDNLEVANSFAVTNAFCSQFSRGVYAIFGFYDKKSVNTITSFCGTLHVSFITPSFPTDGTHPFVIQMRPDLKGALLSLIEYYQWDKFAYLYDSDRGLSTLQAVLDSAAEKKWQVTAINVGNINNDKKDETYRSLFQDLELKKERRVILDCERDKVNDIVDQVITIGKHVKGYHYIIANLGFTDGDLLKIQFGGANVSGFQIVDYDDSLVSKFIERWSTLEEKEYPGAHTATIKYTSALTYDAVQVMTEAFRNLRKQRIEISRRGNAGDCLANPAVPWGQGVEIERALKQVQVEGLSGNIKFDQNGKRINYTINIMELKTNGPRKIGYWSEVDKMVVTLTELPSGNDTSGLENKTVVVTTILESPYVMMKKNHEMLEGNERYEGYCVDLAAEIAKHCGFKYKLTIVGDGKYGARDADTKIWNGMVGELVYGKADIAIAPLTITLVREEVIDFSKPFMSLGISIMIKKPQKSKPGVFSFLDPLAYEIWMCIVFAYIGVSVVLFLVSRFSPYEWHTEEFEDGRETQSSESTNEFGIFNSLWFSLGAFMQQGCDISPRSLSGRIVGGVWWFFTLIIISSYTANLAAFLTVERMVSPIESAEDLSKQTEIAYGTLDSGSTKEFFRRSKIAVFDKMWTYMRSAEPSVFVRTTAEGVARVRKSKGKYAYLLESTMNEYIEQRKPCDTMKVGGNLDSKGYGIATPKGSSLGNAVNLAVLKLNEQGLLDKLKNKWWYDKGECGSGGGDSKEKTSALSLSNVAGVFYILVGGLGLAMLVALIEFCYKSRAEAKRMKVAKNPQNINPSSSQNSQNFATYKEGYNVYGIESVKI

Consider `O=C(Nn1c(=O)c(=O)[nH]c2cc(C#Cc3cnc4cccnn34)ccc21)c1ccccc1` [Compound 28], for which the Ki at GluK3 was 0.25 ± 0.01 µM; on GluA2, above 100 µM; on GluK5, above 100 µM; at GluK2 it was above 100 µM. Besides, the inhibition at 10 µM at GluK1b(Q) is below 5%.

These data come from publication PMC9369419 (International Journal of Molecular Sciences, 2022).
